What all share (type): cell-based
The test system of series [1] is LPS-induced NO production in RAW 264.7 macrophages. Briefly: Inhibition of LPS-induced NO production in RAW 264.7 macrophages (Griess reagent). The note with it: for IC50: LPS-induced RAW 264.7 macrophages, 4 h pretreatment, then 48 h with 2 μg/mL LPS. How it is done: (§1) Then, 100-μL aliquots of the exponentially growing RAW 264.7 cells were seeded in 96-well culture plates at 1 × 10^4 cells/well at 37 °C for overnight in DMEM medium with 0.1% FBS. The culture medium was replaced by fresh free-FBS medium and cells were pretreated with different concentrations (0, 1, 3, 10, 30, 100, 300, 1000 μM) of samples for 4 h. Thereafter, the medium with samples was removed and then incubated for 48 h with or without 2 μg/mL LPS 10% FBS DMEM. The nitrite concentration (NO production) in the culture supernatant was measured using Nitric Oxide assay kit mainly containing Griess reagent. The absorbance was measured at 540 nm using a microplate reader (M5). The amount of NO was calculated from a standard curve created using sodium nitrite with known concentrations. The cell viability was evaluated by SRB colorimetric assay.

The subject of series [2] is NF-κB p65 and p50 subunit. Briefly: Western blotting of p65 and p50 phosphorylation in TNF-α-induced RAW264.7 cells. The note with it: 50, 10 and 1 µM, 8 h, TNF-α 50 ng/mL. How it is done: RAW 264.7 cells were seeded in a 24-well plate at 5 × 10^4 cells/well. After cells adherence for overnight, the test compound 1 (50, 10 and 1 µM) or parthenolide (10 µM) and TNF-α (50 ng/mL) were added to the wells and incubated for 8 h. Then, cell pellets were collected and lysed with RIPA lysis buffer containing 0.5 mM phenylmethylsulfonyl fluoride (PMSF) and a protease inhibitor cocktail. The protein concentration of cell samples was analyzed by using the BCA method. Equal amount proteins of each sample were electrophoresed on 12% separating gel and 4% stacking gel and electrotransferred onto an NC membrane. After incubation with appropriate primary and secondary antibodies of p65 and p50, protein blots were detected by using ECL solution and ChemiDoc XRS+ imaging system (Bio-Rad, Hercules, CA, USA). β-actin was used as loading control.  Figure 4 Compound 1 blocks TNF-α-induced NF-κB activation through p65 and p50 phosphorylation in RAW264.7 cells. After treatment with 1 and parthenolide (P) at the indicated concentrations for 8 h, total cell lysates were tested by western blot experiments.

Series [3] is described as follows: Cytotoxicity / cell viability by SRB colorimetric assay. The note with it: mouse, RAW 264.7 cells, inhibition of cell viability of samples-treated RAW264.7 cells. How it is done: as §1
A further series has as its system NF-κB. Briefly: NF-κB luciferase reporter assay in TNF-α-induced RAW264.7 cells. The note with it: 8 h treatment, TNF-α 50 ng/mL; for inhibition of the NF-κB pathway (result in words): 1-50 µM; for inhibition at 20 µM: Mus musculus, read-out: NF-κB-luciferase inhibitory percentage. How it is done:
RAW 264.7 cells (10,000 cells/well) were placed in a 96-well plate and the cells were then transfected with pNF-κB-Luc expression plasmid using a mixture of plasmid and lipofectamin 2000 PLUS in the Opti-MEM® I Reduced Serum Medium according to manufacturer’s instructions (Life Technologies, Carlsbad, CA, USA). After 12 h, the cells were co-incubated with the active samples (1, 5, 10, 20, 50 µM) and TNF-α. Parthenolide (P) was used as positive control. NF-κB was induced by adding TNF-α (50 ng/mL, delivered in PBS) to the treated wells and the induced control wells. After an additional 8 h, Bright-Glo luciferase reagent (Beyotime) was added to each well (100 μL) and the plate was allowed to stand for two minutes. Luminescence measurements with a relative light unit (RLU) were then obtained using a Fluoroskan Ascent multiple microplate reader (Molecular Device, Sunnyvale, CA, USA). Each experiment was performed in biological triplicate (at minimum) with three technical replicates per experiment.
Figure 3 Compound 1 inhibited TNF-α-induced NF-κB activation by NF-κB-luciferase inhibition assay in RAW264.7 cells. 1 and parthenolide (P, positive control) were dosed to RAW264.7 cells containing a stably transfected NF-κB luciferase reporter and stimulated with TNF-α (50 ng/mL) for 8 h (except for a non-induced control, Non-Ind). […] Mean ± standard deviation values are shown with more than three replicates.

As to `N=C(N)NN` [Aminoguanidine, reference compound], the IC50 in series [1] is 10.9 ± 1.5 µM.
On to `C=C1C(=O)O[C@@H]2C[C@]3(C)C(=C[C@H]12)[C@@H](C)CC[C@H]3O` [Compound 1, 1β-Hydroxy alantolactone], for which, in series [1] (Mus musculus, RAW264.7), the 50% inhibitory concentration (IC50) turned out to be 5.61 ± 0.34 µM. Moreover, the “potency against NO production relative to 2–4” value in series [1] (ratio of IC50 values, 1 versus 2–4) is 6.5–8.4 fold. In addition, the “TNF-α-induced phosphorylation of NF-κB p65 and p50 subunit (result in words)” value in series [2] is reported as “dose-dependently suppressed”. The molecule also showed an IC50 at 4 h in series [3] above 50 µM. Moreover, in the series with NF-κB, the “inhibition of the NF-κB pathway (result in words)” value is “dose-dependent inhibition” and the inhibition at 20 µM amounted to 75%.
Take `C=C1C(=O)O[C@@H]2C[C@@]3(C)C(=O)CC[C@H](C)C3=C[C@H]12` [Compound 2]: the IC50 in series [1] (Mus musculus, RAW264.7) came to 36.1 ± 3.8 µM. Besides, in series [3], half-maximal inhibition (IC50 at 4 h) was put at 34.5 ± 5.8 µM. Further, in the series on NF-κB, the inhibition at 20 µM was determined as 55%.
With `C=C1C(=O)O[C@@H]2C[C@]3(C)C(=C[C@H]12)[C@@H](C)CC[C@H]3OC(C)=O` [Compound 3], the IC50 in series [1] (Mus musculus, RAW264.7) stood at 46.5 ± 5.6 µM. Moreover, in series [3], the IC50 at 4 h is above 50 µM.
The like results for `C=C1C(=O)O[C@@H]2C[C@]3(C)C(=C[C@H]12)[C@@H](C)CC[C@H]3OC(=O)CCC(=O)O` [Compound 4] were, in that order, 39.6 ± 5.7 µM and above 50 µM.
On to `C[C@@H]1C(=O)O[C@@H]2C[C@]3(C)C(=C[C@H]12)[C@@H](C)CC[C@H]3O` [Compound 5], for which the 50% inhibitory concentration (IC50) in series [1] (Mus musculus, RAW264.7) was above 1000 µM.
The same measure, in the same setting: the value for `Cc1ccc(C2=NO[C@]3(C2)C(=O)O[C@@H]2C[C@@]4(C)C(=O)CC[C@H](C)C4=C[C@@H]23)cc1` [Compound 6] was above 1000 µM.
With `C=C1C(=O)O[C@H]2[C@H]1CC/C(C)=C/CC[C@@]1(C)O[C@@H]21` [parthenolide, Parthenolide, reference compound], in the series with NF-κB, the “inhibition of the NF-κB pathway (result in words)” value is “comparably potent”.

The values above are taken from paper PMC6150205, “Semisynthesis, an Anti-Inflammatory Effect of Derivatives of 1β-Hydroxy Alantolactone from Inula britannica” (Molecules : A Journal of Synthetic Chemistry and Natural …, 2017).
